{"source": "patent US6472418B1", "about": "“Non-peptide NK1 receptors antagonists” (Warner-Lambert Company, priority 1998, dated 2002)"}
{"biological_target": "T1, Human NK1 Receptor (Homo sapiens, UniProt P25103)", "T1 construct": "endogenous in cells; host or cells: Human lymphoma IM9 cells (whole cells)", "T1 sequence (P25103 whole entry)": "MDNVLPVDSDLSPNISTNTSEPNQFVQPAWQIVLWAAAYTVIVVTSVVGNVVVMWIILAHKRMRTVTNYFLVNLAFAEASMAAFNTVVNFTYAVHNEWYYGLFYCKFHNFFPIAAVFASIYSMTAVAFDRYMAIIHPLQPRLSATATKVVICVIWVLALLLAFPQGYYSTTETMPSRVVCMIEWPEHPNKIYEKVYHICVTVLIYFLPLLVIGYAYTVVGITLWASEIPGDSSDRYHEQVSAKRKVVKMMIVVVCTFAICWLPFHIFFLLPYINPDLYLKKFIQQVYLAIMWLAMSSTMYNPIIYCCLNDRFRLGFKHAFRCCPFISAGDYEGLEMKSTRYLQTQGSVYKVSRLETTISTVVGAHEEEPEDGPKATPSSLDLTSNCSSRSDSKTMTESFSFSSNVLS", "assay": "In Vitro Human NK1 Receptor Binding Assay ([125I]Bolton-Hunter substance P displacement, IM9 cells)", "details": "Human lymphoma IM9 cells, [125I]Bolton-Hunter substance P; Table 3, array-synthesis products; read-out: IC50 (nM) hNK1", "procedure": "(§1) They have been evaluated in an NK1-receptor binding assay which is described below.\n(§2) Human lymphoma IM9 cells were grown in RPMI 1640 culture medium supplemented with 10% fetal calf serum and 2 mM glutamine and maintained under an atmosphere of 5% CO2. Cells were passaged every 3-4 days by reseeding to a concentration of 4-8×10^6/40 ml per 175 cm^2 flask. Cells were harvested for experiments by centrifugation at 1000 g for 3 min. Pelleted cells were washed once by resuspension into assay buffer (50 mM Tris HCl pH 7.4, 3 mM MnCl2, 0.02% BSA, […] bacitracin, […] chymostatin, 2 mM phosphoramidon, […] leupeptin) and repeating the centrifugation step before resuspending at a concentration of 2.5×10^6 cells/mL assay buffer. Cells ([…]) were incubated with [^125I]Bolton-Hunter substance P (0.05-0.1 nM) in the presence and absence of varying concentrations of test compounds for 50 min at 21° C. Non-specific binding (10% of the total binding observed under these conditions) was defined by […] [Sar^9, Met(02)^11] substance P. Reactions were terminated by rapid filtration under vacuum onto GF\\C filters presoaked in 0.2% PEI for 1-2 h, using a Brandel cell harvester. Filters were washed with 6×1 ml ice-cold Tris HCl (50 mM, pH 7.4) and radioactivity bound determined using a gamma couter. Results were analyzed using iterative curve fitting procedures in RS1 or Graphpad Inplot.", "units": {"IC50": "nM"}}
{"compound": "Cc1ccc(CNC(=O)C(Cc2c[nH]c3ccccc23)NCc2cc3ccccc3o2)cc1", "note": "(stereo not drawn) [Example 209, 2-[(Benzofuran-2-ylmethyl)-amino]-3-(1H-indol-3-yl)-N-(4-methyl-benzyl)-propionamide]", "IC50": 82}
{"compound": "O=C(NCc1ccccc1C(F)(F)F)C(Cc1c[nH]c2ccccc12)NCc1cc2ccccc2o1", "note": "(stereo not drawn) [Example 292, 2-[(Benzofuran-2-ylmethyl)-amino]-3-(1H-indol-3-yl)-N-(2-trifluoromethyl-benzyl)-propionamide]", "IC50": 1130}
{"compound": "O=C(NCCc1c[nH]cn1)C(Cc1c[nH]c2ccccc12)NCc1cc2ccccc2o1", "note": "(stereo not drawn) [Example 206, 2-[(Benzofuran-2-ylmethyl)-amino]-N-[2-(1H-imidazol-4-yl)-ethyl]-3-(1H-indol-3-yl)-propionamide]", "IC50": 6680}
{"compound": "O=C(NCc1cccc(Br)c1)C(Cc1c[nH]c2ccccc12)NCc1cc2ccccc2o1", "note": "(stereo not drawn) [Example 219]", "IC50": 31}
{"compound": "CC(NC(=O)C(Cc1c[nH]c2ccccc12)NCc1cc2ccccc2o1)C1CCCCC1", "note": "(stereo not drawn) [Example 294, 2-[(Benzofuran-2-ylmethyl)-amino]-N-(1-cyclohexyl-ethyl)-3-(1H-indol-3-yl)-propionamide]", "IC50": 58}
{"compound": "O=C(NCc1ccccc1O)C(Cc1c[nH]c2ccccc12)NCc1cc2ccccc2o1", "note": "(stereo not drawn) [Example 256, 2-[(Benzofuran-2-ylmethyl)-amino]-N-(2-hydroxy-benzyl)-3-(1H-indol-3-yl)-propionamide]", "IC50": "> 10000"}
{"compound": "O=C(NC1CCCCC1)C(Cc1c[nH]c2ccccc12)NCc1cc2ccccc2o1", "note": "(stereo not drawn) [Example 276, 2-[(Benzofuran-2-ylmethyl)-amino]-N-cyclohexyl-3-(1H-indol-3-yl)-propionamide]", "IC50": 655}
{"compound": "CC(NC(=O)C(Cc1c[nH]c2ccccc12)NCc1cc2ccccc2o1)c1cccc(N(C)C)c1", "note": "(stereo not drawn) [Example 227, 2-[(Benzofuran-2-ylmethyl)-amino]-N-[1-(3-dimethylamino-phenyl)-ethyl]-3-(1H-indol-3-yl)-propionamide]", "IC50": 182}
{"compound": "O=C(NCc1nc2ccccc2[nH]1)C(Cc1c[nH]c2ccccc12)NCc1cc2ccccc2o1", "note": "(stereo not drawn) [Example 250, 2-[(Benzofuran-2-ylmethyl)-amino]-N-(1H-benzoimidazol-2-ylmethyl)-3-(1H-indol-3-yl)-propionamide]", "IC50": 3410}
{"compound": "O=C(NCCN1CCOCC1)C(Cc1c[nH]c2ccccc12)NCc1cc2ccccc2o1", "note": "(stereo not drawn) [Example 213, 2-[(Benzofuran-2-ylmethyl)-amino]-3-(1H-indol-3-yl)-N-(2-morpholin-4-yl-ethyl)-propionamide]", "IC50": 1260}
{"compound": "O=C(NCc1ccccn1)C(Cc1c[nH]c2ccccc12)NCc1cc2ccccc2o1", "note": "(stereo not drawn) [Example 192, 2-[(Benzofuran-2-ylmethyl)-amino]-3-(1H-indol-3-yl)-N-pyridin-2-ylmethyl-propionamide]", "IC50": 1980}
{"biological_target": "T1, Human NK1 Receptor", "assay": "In Vitro Human NK1 Receptor Binding Assay ([125I]Bolton-Hunter substance P displacement, IM9 cells)", "details": "Table 4; [125I]Bolton-Hunter substance P displacement, human IM9 cells; read-out: IC50 (nM) hNK1", "procedure": "as §1, §2", "units": {"IC50": "nM"}}
{"compound": "3-(1H-Indol-3-yl)-2methyl-N-(1-phenyl-ethyl)-2-[(1-phenyl-1H-indol-2-ylmethyl)-amino]-propionamide [compound 333]", "IC50": 3610}
{"compound": "CC(NC(=O)C(C)(Cc1c[nH]c2ccccc12)NCc1c[nH]c2ccccc12)c1ccccc1", "note": "(stereo not drawn) [compound 355, 3-(1H-Indol-3-yl)-2-[(1H-indol-3-ylmethyl)-amino]-2-methyl-N-(1-phenyl-ethyl)-propionamide]", "IC50": 1050}
{"compound": "CSc1ccc(CNC(C)(Cc2c[nH]c3ccccc23)C(=O)NC(C)c2ccccc2)cc1", "note": "(stereo not drawn) [compound 345, 3-(1H-Indol-3-yl)-2-methyl-2-(4-methylsulfanyl-benzylamino)-N-(1-phenyl-ethyl)-propionamide]", "IC50": 609}
{"compound": "CC(NC(=O)C(C)(Cc1c[nH]c2ccccc12)NCc1ccoc1)c1ccccc1", "note": "(stereo not drawn) [compound 312, 2-[(Furan-3-ylmethyl)-amino]-3-(1H-indol-3-yl)-2-methyl-N-(1-phenyl-ethyl)-propionamide]", "IC50": 1820}
{"compound": "CCOC(=O)Nc1ccccc1CNC(C)(Cc1c[nH]c2ccccc12)C(=O)NC(C)c1ccccc1", "note": "(stereo not drawn) [compound 329, (2-{[2-(1H-Indol-3-yl)-1-methyl-1-(1-phenyl-ethylcarbamoyl)-ethylamino]-methyl}-phenyl)-carbamic acid ethyl ester]", "IC50": 4190}
{"biological_target": "T1, Human NK1 Receptor", "assay": "In Vitro Human NK1 Receptor Binding Assay ([125I]Bolton-Hunter substance P displacement, IM9 cells)", "details": "Table 5; [125I]Bolton-Hunter substance P displacement, human IM9 cells; read-out: IC50 (nM) hNK1", "procedure": "as §1, §2", "units": {"IC50": "nM"}}
{"compound": "CC(NC(=O)C(Cc1c[nH]c2ccccc12)NCC1CC=C(CCCC(C)(C)O)CC1)c1ccccc1", "note": "(stereo not drawn) [compound 365]", "IC50": 5280}
{"compound": "CC(NC(=O)C(Cc1c[nH]c2ccccc12)NCc1ccco1)c1ccccc1", "note": "(stereo not drawn) [compound 405]", "IC50": 429}
{"compound": "CCOC(=O)Nc1ccccc1CNC(Cc1c[nH]c2ccccc12)C(=O)NC(C)c1ccccc1", "note": "(stereo not drawn) [compound 367]", "IC50": 236}
{"compound": "CC(NC(=O)C(Cc1c[nH]c2ccccc12)NCc1cccs1)c1ccccc1", "note": "(stereo not drawn) [compound 396]", "IC50": 1070}
{"compound": "CC(NC(=O)C(Cc1c[nH]c2ccccc12)NCc1ccc(OCc2ccccc2)cc1)c1ccccc1", "note": "(stereo not drawn) [compound 379]", "IC50": 587}
{"compound": "CC(NC(=O)C(Cc1c[nH]c2ccccc12)NCc1cccc(F)c1)c1ccccc1", "note": "(stereo not drawn) [compound 401]", "IC50": 39}
{"compound": "CC(NC(=O)C(Cc1c[nH]c2ccccc12)NCCCc1cccc2ccccc12)c1ccccc1", "note": "(stereo not drawn) [compound 380]", "IC50": 500}
{"biological_target": "T1, Human NK1 Receptor", "assay": "In Vitro Human NK1 Receptor Binding Assay ([125I]Bolton-Hunter substance P displacement, IM9 cells)", "details": "human NK1 receptor, IM9 cells, [125I]Bolton-Hunter substance P; read-out: IC50 (nM) hNK1", "procedure": "as §1, §2", "units": {"IC50": "nM"}}
{"compound": "CC(Cc1c[nH]c2ccccc12)(NCc1cc2ccccc2o1)C(=O)NCC(=O)N1CCOCC1", "note": "(stereo not drawn) [compound 173, 2-[(Benzofuran-2-ylmethyl)-amino]-3-(1H-indol-3-yl)-2-methyl-N-(2-morpholin-4-yl-2-oxo-ethyl)-propionamide]", "IC50": "> 10000"}
{"compound": "CC(Cc1c[nH]c2ccccc12)(NCc1cc2ccccc2o1)C(=O)NCc1ccccn1", "note": "(stereo not drawn) [compound 23, 2-[(Benzofuran-2-ylmethyl)-amino]-3 (1H-indol-3-yl)-2-methyl-N-pyridin-2 ylmethyl-propionamide]", "IC50": 1280}
{"compound": "CC(Cc1c[nH]c2ccccc12)(NCc1cc2ccccc2o1)C(=O)NCc1cnc2ccccc2c1", "note": "(stereo not drawn) [compound 151, 2-[(Benzofuran-2-ylmethyl)-amino]-3-(1H-indol-3-yl)-2-methyl-N-quinolin-3-ylmethyl-propionamide]", "IC50": 1210}
{"compound": "CC(Cc1c[nH]c2ccccc12)(NCc1cc2ccccc2o1)C(=O)NCCN1CCNC1=S", "note": "(stereo not drawn) [compound 132, 2-[(Benzofuran-2-ylmethyl)-amino]-3-(1H-indol-3-yl)-2-methyl-N-[2-(2-thioxo-imidazolidin-1-yl)-ethyl]-propionamide]", "IC50": 6030}
{"compound": "CC(Cc1c[nH]c2ccccc12)(NCc1cc2ccccc2o1)C(=O)NCc1ccccc1O", "note": "(stereo not drawn) [compound 186, 2-[(Benzofuran-2-ylmethyl)-amino]-N-(2-hydroxy-benzyl)-3-(1H-indol-3-yl)-2-methyl-propionamide]", "IC50": 84}
{"compound": "COc1ccc(CNC(=O)C(C)(Cc2c[nH]c3ccccc23)NCc2cc3ccccc3o2)cc1", "note": "(stereo not drawn) [compound 68, 2-[(Benzofuran-2-ylmethyl)-amino]-3-(1H-indol-3-yl)-N-(4-methoxy-benzyl)-2-methyl-propionamide]", "IC50": 312}
{"compound": "CC(Cc1c[nH]c2ccccc12)(NCc1cc2ccccc2o1)C(=O)NCC(CC(=O)O)c1ccc(Cl)cc1", "note": "(stereo not drawn) [compound 84, 4-[2-[(Benzofuran-2-ylmethyl)-amino]-3-(1H-indol-3-yl)-2-methyl-propionylamino]-3-(4-chloro-phenyl)-butyric acid]", "IC50": "> 10000"}
{"compound": "CC(Cc1c[nH]c2ccccc12)(NCc1cc2ccccc2o1)C(=O)NCc1ccc(F)c(F)c1", "note": "(stereo not drawn) [compound 167, 2-[(Benzofuran-2-ylmethyl)-amino]-N-(3,4-difluoro-benzyl)-3-(1H-indol-3-yl)-2-methyl-propionamide]", "IC50": 29}
{"compound": "COc1cccc(CNC(=O)C(C)(Cc2c[nH]c3ccccc23)NCc2cc3ccccc3o2)c1", "note": "(stereo not drawn) [compound 55, 2-[(Benzofuran-2-ylmethyl)-amino]-3-(1H-indol-3-yl)-N-(3-methoxy-benzyl)-2-methyl-propionamide]", "IC50": 643}
{"compound": "CC(Cc1c[nH]c2ccccc12)(NCc1cc2ccccc2o1)C(=O)NCc1ncc(C(=O)O)c(O)n1", "note": "(stereo not drawn) [compound 43, 2-{[2-[(Benzofuran-2-ylmethyl)-amino]-3-(1H-indol-3-yl)-2-methyl-propionylamino]-methyl}-4-hydroxy-pyrimidine-5-carboxylic acid]", "IC50": 3610}
{"compound": "CN1CCCC1CCNC(=O)C(C)(Cc1c[nH]c2ccccc12)NCc1cc2ccccc2o1", "note": "(stereo not drawn) [compound 52, 2-[(Benzofuran-2-ylmethyl)-amino]-3-(1H-indol-3-yl)-2-methyl-N-[2-(1-methyl-pyrrolidin-2-yl)-ethyl]-propionamide]", "IC50": "> 10000"}
{"compound": "COC(=O)C(Cc1c[nH]cn1)NC(=O)C(C)(Cc1c[nH]c2ccccc12)NCc1cc2ccccc2o1", "note": "(stereo not drawn) [compound 176, 2-[2-[(Benzofuran-2-ylmethyl)-amino]-3-(1H-indol-3-yl)-2-methyl-propionylamino]-3-(1H-imidazol-4-yl)-propionic acid methyl ester]", "IC50": 1760}
{"compound": "CC(Cc1c[nH]c2ccccc12)(NCc1cc2ccccc2o1)C(=O)NCCCn1ccnc1", "note": "(stereo not drawn) [compound 134, 2-[(Benzofuran-2-ylmethyl)-amino]-N-(3-imidazol-1-yl-propyl)-3-(1H-indol-3-yl)-2-methyl-propionamide]", "IC50": 5370}
